# System: T1, VtlG (P450)
# T1 construct: recombinant from E. coli, purified; haem P450 monooxygenase
# Assay: UPLC product quantification at […] nm, Michaelis-Menten fit
# Assay type: biochemical, Streptomyces spiroverticillatus
# Conditions: mono-hydroxylation of 4 to 6; 5 nM VtlG, commercial spinach Fd 0.1 mg/mL, spinach FNR 1 unit/mL, 1 mM NADPH; 50 mM Tris-HCl pH 7.5, 30 °C
smiles,measurement,value
CC1=CC=CC=CC(C)CNC(=O)CC(=O)C=CC=CCC(O)CC(O)C=CC=C1 (stereo not shown) [compound 4],Km,0.84 ± 0.26 µM

# From paper PMC11236979, “Iron-sulphur protein catalysed [4+2] cycloadditions in natural product biosynthesis” (Nature Communications, 2024)
